Laboratory results reported in paper PMC3606118, “Salvianolic Acid A, a Novel Matrix Metalloproteinase-9 Inhibitor, Prevents Cardiac Remodeling in Spontaneously Hypertensive Rats” (PLoS ONE, 2013).

Tested on: H9c2 cells overexpressing MMP-9 (pDEST-MMP9)
Experiment: Transwell migration of H9c2 cells overexpressing MMP-9
Format: cell-based, Rat
Details: pDEST-MMP9 untreated 157.4±10.2, pDEST 74.6±8.9
Protocol: Transwell assay was employed to evaluate effects of SalA on neonatal cardiac fibroblast migration induced by MMP-9 CD. Twenty thousand cells in 200 µL culture medium containing various concentrations of SalA were loaded onto PET track-etched membrane in modified Boyden chambers (BD Falcon Cell Culture Insert, BD), and same medium containing MMP-9 CD (200 nmol/L) was added to the lower side of the migration chamber. After incubating for 24 h, migrated cells (in the lower side of migration chamber) were stained with 0.1% crystal violet and counted with a microscope at 200 X magnification. Five to six view fields were counted on each membrane. Migration is expressed as the mean value of total number of migrated cells per field. DNA cloning using Gateway technology was carried out according to manufacturer’s instructions. Full-length MMP-9 cDNA (MGC-12688) was first subcloned into entry vector pDONR^TM221, followed by recombination reaction between the attL-containing pDONR^TM221 vector and attR-containing destination pDEST vector (Invitrogen, Carlsbad, CA, USA). […] Stable H9c2 cell line was generated by selection with 2 mg/mL G418 (denoted as pDEST-MMP9) and maintained in 0.75 mg/mL G418, and expression of MMP-9 was evaluated using zymography assay. […]

`O=C(/C=C/c1ccc(O)c(O)c1/C=C/c1ccc(O)c(O)c1)O[C@H](Cc1ccc(O)c(O)c1)C(=O)O` [SalA, salvianolic acid A] showed a migrated cells (1 µmol/L SalA) of 84.4±17.0 cells per field and a migrated cells (10 µmol/L SalA) of 42.3±8.9 cells per field.
